This note sets out measurements from ChEMBL document CHEMBL3407468, “Novel 5-substituted pyrrolo[2,3-d]pyrimidines as dual inhibitors of glycinamide ribonucleotide formyltransferase and 5-aminoimidazole-4-carboxamide ribonucleotide formyltransferase and as potential antitumor agents” (J Med Chem, 2015).

Calls of active or inactive are those of the source. The calls are words filed in the database; no cut-off is given here.

In experiment [1] the test system is KB. The experiment can be described thus: Antiproliferative activity against human KB cells expressing RFC/FRalpha/PCFT after 96 hrs by CellTiter-Blue assay. Format: functional, cell-based. (In general: Alamar Blue is a resazurin reagent that responds to reducing activity.)
Experiment [2] in a line: Cytotoxicity against PCFT-deficient Chinese hamster R2(VC) cells assessed as growth inhibition after 96 hrs by CellTiter-Blue assay. Format: cell-based. The settings on record: Cricetulus griseus.
For another experiment, the system named is R2. The experiment can be described thus: Cytotoxicity against RFC-deficient Chinese hamster R2 cells assessed as growth inhibition after 96 hrs by CellTiter-Blue assay. It is filed as cell-based. The following applies: Cricetulus griseus, R2, 96 h.
In experiment [3] the target is T1, GAR transformylase/AICAR transformylase (Homo sapiens) (UniProt P31939+P22102). The following applies: KB, at 1 to 1000 nM.
T1 sequence (P31939 whole entry, looked up, one chain of several): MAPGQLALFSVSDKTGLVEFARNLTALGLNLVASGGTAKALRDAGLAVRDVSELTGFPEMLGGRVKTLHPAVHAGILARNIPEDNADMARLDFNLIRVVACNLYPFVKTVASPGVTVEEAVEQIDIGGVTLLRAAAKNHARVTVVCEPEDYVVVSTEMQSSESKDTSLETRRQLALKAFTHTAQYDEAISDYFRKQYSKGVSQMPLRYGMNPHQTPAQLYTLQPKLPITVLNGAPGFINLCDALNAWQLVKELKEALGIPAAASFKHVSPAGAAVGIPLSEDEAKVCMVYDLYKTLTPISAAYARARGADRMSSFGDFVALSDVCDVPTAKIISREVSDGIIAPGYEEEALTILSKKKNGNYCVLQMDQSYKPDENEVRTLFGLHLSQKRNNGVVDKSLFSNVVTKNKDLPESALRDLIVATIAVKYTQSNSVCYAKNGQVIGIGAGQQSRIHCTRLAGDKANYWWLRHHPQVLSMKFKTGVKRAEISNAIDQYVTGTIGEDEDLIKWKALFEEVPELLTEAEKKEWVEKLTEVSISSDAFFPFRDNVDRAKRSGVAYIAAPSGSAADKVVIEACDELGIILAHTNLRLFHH
Description: Inhibition of GARFTase/AICARFTase in human KB cells expressing RFC/FRalpha/PCFT assessed as cell growth inhibition at 1 to 1000 nM after 96 hrs by CellTiter-Blue assay in presence of 10 uM thymidine
For experiment [4], the target named is T1, GAR transformylase/AICAR transformylase (Homo sapiens). The following applies: KB, at 1 to 1000 nM. The source holds these as a separate data set.
Description: Inhibition of GARFTase/AICARFTase in human KB cells expressing RFC/FRalpha/PCFT assessed as cell growth inhibition at 1 to 1000 nM after 96 hrs by CellTiter-Blue assay in presence of 60 uM adenosine
For experiment [5], the target named is Bifunctional purine biosynthesis protein ATIC (Homo sapiens) (UniProt P31939). In words: Inhibition of AICARFTase in human KB cells expressing RFC/FRalpha/PCFT assessed as cell growth inhibition at 1 to 1000 nM after 96 hrs by CellTiter-Blue assay in presence of 320 uM AICA. Format: cell-based.
Sequence of Bifunctional purine biosynthesis protein ATIC (Homo sapiens) (P31939 whole entry, looked up): as the sequence (P31939 whole entry, looked up, one chain of several) above
For experiment [6], the target named is T2, Trifunctional purine biosynthetic protein adenosine-3 (Homo sapiens, UniProt P22102).
T2 sequence (P22102 whole entry): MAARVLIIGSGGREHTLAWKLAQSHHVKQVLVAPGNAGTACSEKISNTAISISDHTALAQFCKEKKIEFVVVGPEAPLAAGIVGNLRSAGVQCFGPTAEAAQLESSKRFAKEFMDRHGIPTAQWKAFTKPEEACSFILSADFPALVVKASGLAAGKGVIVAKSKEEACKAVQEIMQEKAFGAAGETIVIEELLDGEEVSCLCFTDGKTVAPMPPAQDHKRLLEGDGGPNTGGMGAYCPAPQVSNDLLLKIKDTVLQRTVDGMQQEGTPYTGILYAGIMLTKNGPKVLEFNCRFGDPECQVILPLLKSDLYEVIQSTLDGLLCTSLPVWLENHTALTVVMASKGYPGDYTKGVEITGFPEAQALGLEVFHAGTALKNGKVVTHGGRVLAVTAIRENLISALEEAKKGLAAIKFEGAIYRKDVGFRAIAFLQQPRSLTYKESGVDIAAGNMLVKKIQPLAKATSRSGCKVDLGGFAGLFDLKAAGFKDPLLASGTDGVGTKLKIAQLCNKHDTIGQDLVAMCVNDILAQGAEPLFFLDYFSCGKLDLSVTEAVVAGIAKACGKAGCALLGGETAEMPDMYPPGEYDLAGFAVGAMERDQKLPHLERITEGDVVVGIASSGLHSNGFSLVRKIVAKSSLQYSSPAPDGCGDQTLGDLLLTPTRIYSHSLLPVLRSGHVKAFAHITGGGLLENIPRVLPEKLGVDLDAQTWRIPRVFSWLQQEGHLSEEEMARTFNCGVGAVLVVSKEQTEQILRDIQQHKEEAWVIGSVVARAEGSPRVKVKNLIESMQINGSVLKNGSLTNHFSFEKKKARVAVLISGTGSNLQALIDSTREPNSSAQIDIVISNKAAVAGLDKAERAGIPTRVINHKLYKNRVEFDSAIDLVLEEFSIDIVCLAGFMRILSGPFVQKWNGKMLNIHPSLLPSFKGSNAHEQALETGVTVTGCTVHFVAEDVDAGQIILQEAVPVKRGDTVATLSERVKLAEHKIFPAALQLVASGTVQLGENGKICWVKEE
The experiment can be described thus: Inhibition of GARFTase in human KB cells expressing RFC/FRalpha/PCFT assessed as incorporation of [U-14C]-glycine into [14C]-formyl glycinamide ribonucleotide incubated for 1 hr followed by [U-14C]-glycine addition measured after 16 hrs. It is filed as cell-based.

Experiment [7] concerns KB. The experiment can be described thus: Antiproliferative activity against human KB cells expressing RFC/FRalpha/PCFT after 96 hrs by CellTiter-Blue assay in presence of 200 nM folic acid. Format: functional, cell-based.

Usually IC50 stands for the concentration that inhibits the measured activity by half. Consider `Nc1nc2[nH]cc(CCCCCCc3ccc(C(=O)N[C@@H](CCC(=O)O)C(=O)O)s3)c2c(=O)[nH]1`, for which the IC50 (in the experiment on KB [1]; in experiment [2]; in the experiment on R2) was over 1000 nM throughout.

Consider `Nc1nc2[nH]cc(CCCc3ccc(C(=O)N[C@@H](CCC(=O)O)C(=O)O)s3)c2c(=O)[nH]1`, for which the IC50 is 211 nM in the experiment on KB [1], over 1000 nM in experiment [2] and over 1000 nM in the experiment on R2. The inhibition entry in experiment [3] and in experiment [5] was “Active” throughout. Besides, the inhibition entry in experiment [4] was “inactive”.

Regarding `Nc1nc2[nH]cc(Cc3ccc(C(=O)N[C@@H](CCC(=O)O)C(=O)O)s3)c2c(=O)[nH]1`, the concentration for half-maximal inhibition (IC50) (in the experiment on KB [1]; in experiment [2]; with R2) was over 1000 nM throughout.

For the molecule `Nc1nc2[nH]cc(CCCCc3ccc(C(=O)N[C@@H](CCC(=O)O)C(=O)O)s3)c2c(=O)[nH]1`, the IC50 with KB [1] was 66 nM; in experiment [2], over 1000 nM; in experiment [6], 61 nM; in the experiment on R2, over 1000 nM. For the same molecule, the inhibition entry in experiment [3] and in experiment [5] was “Active” each time. In experiment [4], the inhibition entry is “inactive”. The outcome in the experiment on KB [7] was inactive.

Turning to `Nc1nc2[nH]cc(CCc3ccc(C(=O)N[C@@H](CCC(=O)O)C(=O)O)s3)c2c(=O)[nH]1`, the IC50 with KB [1] was 875 nM; in experiment [2], over 1000 nM; in the experiment with R2, over 1000 nM.

On to `Nc1nc2[nH]c(CCCCc3ccc(C(=O)N[C@@H](CCC(=O)O)C(=O)O)s3)cc2c(=O)[nH]1`, for which the IC50 in experiment [2] was over 1000 nM; in experiment [6], 3.13 nM; in the experiment on R2, over 1000 nM. In addition, in experiment [5], the inhibition result was “inactive”.

For the molecule `Nc1nc2[nH]cc(CCCCCc3ccc(C(=O)N[C@@H](CCC(=O)O)C(=O)O)s3)c2c(=O)[nH]1`, the IC50 in the experiment with KB [1] was 41.7 nM; in experiment [2], over 1000 nM; in the experiment with R2, over 1000 nM. In addition, the inhibition result in experiment [3] was “Active”. The inhibition entry in experiment [4] and in experiment [5] was “inactive” in each case. The outcome in the experiment on KB [7] was inactive.
